This passage reports diseased leaf area results from patent US10499644B2, “Substituted oxadiazoles for combating phytopathogenic fungi” (BASF SE, priority 2015, dated 2019).

In assay [1] the test system is Puccinia recondita. As to the kind of experiment: Curative control of brown rust on wheat (glass house trial). The settings on record: 63 ppm active compound, sprayed after inoculation, assessed after 8 days; untreated plants 90%. The assay is classed as in vivo, Puccinia recondita on wheat. On the procedure:
(§1) The spray solutions were prepared in several steps: the stock solutions were prepared: a mixture of acetone and/or dimethylsulfoxide and the wetting agent/emulsifier Wettol, which is based on ethoxylated alkylphenoles, in a relation (volume) solvent-emulsifier of 99 to 1 was added to 25 mg of the compound to give a total of 5 ml. Water was then added to total volume of 100 ml. This stock solution was diluted with the described solvent-emulsifier-water mixture to the given concentration.
The first two developed leaves of pot-grown wheat seedling were dusted with spores of Puccinia recondita. To ensure the success the artificial inoculation, the plants were transferred to a humid chamber without light and a relative humidity of 95 to 99% and 20 to 24° C. for 24 hours. The next day the plants were cultivated for 3 days in a greenhouse chamber at 20 to 24° C. and a relative humidity between 65 and 70%. Then the plants were sprayed to run-off with an aqueous suspension, containing the concentration of active ingredient or their mixture as described below. The plants were allowed to air-dry. Then the trial plants were cultivated for 8 days in a greenhouse chamber at 20 to 24° C. and a relative humidity between 65 and 70%. The extent of fungal attack on the leaves was visually assessed as % diseased leaf area.

Assay [2] deals with Puccinia recondita. Put plainly: Preventative control of brown rust on wheat (glass house trial). Conditions: 63 ppm active compound, sprayed 1 day before inoculation, assessed after 6 days; untreated plants 90%. It is filed as in vivo, Puccinia recondita on wheat. On the procedure:
as §1
The first two developed leaves of pot-grown wheat seedling were sprayed to run-off with an aqueous suspension, containing the concentration of active ingredient or their mixture as described below. The next day the plants were inoculated with spores of Puccinia recondita. To ensure the success the artificial inoculation, the plants were transferred to a humid chamber without light and a relative humidity of 95 to 99% and 20 to 24° C. for 24 hours. Then the trial plants were cultivated for 6 days in a greenhouse chamber at 20 to 24° C. and a relative humidity between 65 and 70%. The extent of fungal attack on the leaves was visually assessed as % diseased leaf area.

SMILES strings stand for the structures.

For `CC(=O)NC1(c2ccc(-c3noc(C(F)(F)F)n3)cc2)CC1` [Ex-2, N-[1-[4-[5-(trifluoromethyl)-1,2,4-oxadiazol-3-yl]phenyl]-cyclopropyl]acetamide], the figures for the diseased leaf area in the assay with Puccinia recondita [1] and in the assay with Puccinia recondita [2] were 1% and 2%, respectively.
